Results on 14 molecules are retold here after US12497365B2, “4-pyridinyl formamide compound or derivative thereof, preparation method therefor, herbicidal composition and use thereof” (Qingdao Kingagroot Chemical Compound Co., Ltd., priority 2019, dated 2025).

Common to all, as to test: Weeding effect in post-emergence stage
Format in all cases: in vivo
Holding throughout (conditions): active ingredient 2000 g/ha, 3 weeks after application, fresh weight control rate

The test system of assay [1] is Amaranthus retroflexus L. The gist of the method:
(§1)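 Read-out is growth control rate based on fresh weight, assessed 3 weeks after treatment in the greenhouse. Plants were sprayed at the 2-3 leaf stage with compound dissolved in acetone, plus Tween 80 and methyl oleate emulsifiable concentrate, at doses from 125 to 2000 g/ha.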

A further assay has as its system Abutilon theophrasti. The gist of the method: as §1
The test system of a further assay is Chenopodium album. The method in brief: as §1
In another assay the test system is Descurainia sophia. The method in brief:
as §1

`CCOC(C)n1cc(-c2nccc(C(=O)Nc3nnnn3C)c2Cl)cn1` (centres unmarked) [Compound 1-176]: the “Weeding effect, activity level (growth control rate), Amaranthus retroflexus L.” value (“Weeding effect … Amaranthus retroflexus L.” for short) in assay [1] was 5 (Level 5: growth control rate is above 85%). Further, the “Weeding effect, activity level (growth control rate), Abutilon theophrasti” value (shortened to “Weeding effect … Abutilon theophrasti”) with Abutilon theophrasti is recorded as 5 (Level 5: growth control rate is above 85%). The “Weeding effect, activity level (growth control rate), Chenopodium album” value (shortened to “Weeding effect … Chenopodium album”) in the assay on Chenopodium album is on record as 5 (Level 5: growth control rate is above 85%). For the same molecule, the “Weeding effect, activity level (growth control rate), Descurainia sophia” value (“Weeding effect … Descurainia sophia” below) in the assay on Descurainia sophia was 5 (Level 5: growth control rate is above 85%).

Regarding `Cn1nnnc1NC(=O)c1ccnc(-c2ccn[nH]2)c1Cl` [Compound 1-177], the “Weeding effect … Amaranthus retroflexus L.” value in assay [1] is given as 5 (Level 5: growth control rate is above 85%). In the assay with Abutilon theophrasti, the “Weeding effect … Abutilon theophrasti” value is on record as 5 (Level 5: growth control rate is above 85%). Besides, in the assay on Chenopodium album, the “Weeding effect … Chenopodium album” value is listed as 5 (Level 5: growth control rate is above 85%). Moreover, the “Weeding effect … Descurainia sophia” value in the assay with Descurainia sophia is reported as 5 (Level 5: growth control rate is above 85%).

As to `Cn1nccc1-c1nccc(C(=O)Nc2nnnn2C)c1Cl` [Compound 1-178], the “Weeding effect … Amaranthus retroflexus L.” value in assay [1] was 5 (Level 5: growth control rate is above 85%). Further, the “Weeding effect … Abutilon theophrasti” value in the assay on Abutilon theophrasti is given as 5 (Level 5: growth control rate is above 85%). Further, the “Weeding effect … Chenopodium album” value in the assay on Chenopodium album is recorded as 5 (Level 5: growth control rate is above 85%). Further, the “Weeding effect … Descurainia sophia” value in the assay with Descurainia sophia is 5 (Level 5: growth control rate is above 85%).

As for `Cc1cc(-c2nccc(C(=O)Nc3nnnn3C)c2Cl)n(C)n1` [Compound 1-179], the “Weeding effect … Amaranthus retroflexus L.” value in assay [1] is listed as 5 (Level 5: growth control rate is above 85%). Besides, in the assay with Abutilon theophrasti, the “Weeding effect … Abutilon theophrasti” value is listed as 5 (Level 5: growth control rate is above 85%). The “Weeding effect … Chenopodium album” value in the assay on Chenopodium album is listed as 5 (Level 5: growth control rate is above 85%). In the assay with Descurainia sophia, the “Weeding effect … Descurainia sophia” value is given as 5 (Level 5: growth control rate is above 85%).

Consider `Cn1nc(C(F)(F)F)cc1-c1nccc(C(=O)Nc2nnnn2C)c1Cl` [Compound 1-180], for which the “Weeding effect … Amaranthus retroflexus L.” value in assay [1] was 5 (Level 5: growth control rate is above 85%). In addition, the “Weeding effect … Abutilon theophrasti” value in the assay with Abutilon theophrasti is 5 (Level 5: growth control rate is above 85%). Moreover, the “Weeding effect … Chenopodium album” value in the assay on Chenopodium album was 5 (Level 5: growth control rate is above 85%). Further, the “Weeding effect … Descurainia sophia” value in the assay on Descurainia sophia is recorded as 5 (Level 5: growth control rate is above 85%).

As to `Cn1nnnc1NC(=O)c1ccnc(-c2ccnn2C(F)F)c1Cl` [Compound 1-181], in assay [1], the “Weeding effect … Amaranthus retroflexus L.” value is recorded as 5 (Level 5: growth control rate is above 85%). For the same molecule, the “Weeding effect … Abutilon theophrasti” value in the assay with Abutilon theophrasti is 5 (Level 5: growth control rate is above 85%). In the assay with Chenopodium album, the “Weeding effect … Chenopodium album” value is 5 (Level 5: growth control rate is above 85%). The “Weeding effect … Descurainia sophia” value in the assay with Descurainia sophia is listed as 5 (Level 5: growth control rate is above 85%).

Consider `Cn1nnnc1NC(=O)c1ccnc(-c2ccnn2C2CCCCO2)c1Cl` (centres unmarked) [Compound 1-182], for which the “Weeding effect … Amaranthus retroflexus L.” value in assay [1] is recorded as 5 (Level 5: growth control rate is above 85%). The “Weeding effect … Abutilon theophrasti” value in the assay on Abutilon theophrasti was 5 (Level 5: growth control rate is above 85%). The “Weeding effect … Chenopodium album” value in the assay with Chenopodium album was 5 (Level 5: growth control rate is above 85%). For the same molecule, in the assay with Descurainia sophia, the “Weeding effect … Descurainia sophia” value is recorded as 5 (Level 5: growth control rate is above 85%).

`Cn1nnnc1NC(=O)c1ccnc(-c2ccoc2)c1Cl` [Compound 1-183]: in assay [1], the “Weeding effect … Amaranthus retroflexus L.” value was 5 (Level 5: growth control rate is above 85%). The “Weeding effect … Abutilon theophrasti” value in the assay with Abutilon theophrasti is reported as 5 (Level 5: growth control rate is above 85%). Also, the “Weeding effect … Chenopodium album” value in the assay on Chenopodium album is listed as 5 (Level 5: growth control rate is above 85%). Further, the “Weeding effect … Descurainia sophia” value with Descurainia sophia is recorded as 5 (Level 5: growth control rate is above 85%).

Take `Cn1nnnc1NC(=O)c1ccnc(-c2ccco2)c1Cl` [Compound 1-184]: the “Weeding effect … Amaranthus retroflexus L.” value in assay [1] is recorded as 5 (Level 5: growth control rate is above 85%). For the same molecule, in the assay on Abutilon theophrasti, the “Weeding effect … Abutilon theophrasti” value is 5 (Level 5: growth control rate is above 85%). Also, the “Weeding effect … Chenopodium album” value in the assay on Chenopodium album was 5 (Level 5: growth control rate is above 85%). Besides, the “Weeding effect … Descurainia sophia” value in the assay with Descurainia sophia was 5 (Level 5: growth control rate is above 85%).

`Cn1nnnc1NC(=O)c1ccnc(-c2ccc(C=O)o2)c1Cl` [Compound 1-185]: the “Weeding effect … Amaranthus retroflexus L.” value in assay [1] is on record as 5 (Level 5: growth control rate is above 85%). For the same molecule, the “Weeding effect … Abutilon theophrasti” value with Abutilon theophrasti was 5 (Level 5: growth control rate is above 85%). The “Weeding effect … Chenopodium album” value in the assay with Chenopodium album is 5 (Level 5: growth control rate is above 85%). In addition, in the assay on Descurainia sophia, the “Weeding effect … Descurainia sophia” value is on record as 5 (Level 5: growth control rate is above 85%).

For `Cn1nnnc1NC(=O)c1ccnc(-c2cccs2)c1Cl` [Compound 1-186], in assay [1], the “Weeding effect … Amaranthus retroflexus L.” value is 5 (Level 5: growth control rate is above 85%). In addition, in the assay with Abutilon theophrasti, the “Weeding effect … Abutilon theophrasti” value is 5 (Level 5: growth control rate is above 85%). In the assay on Chenopodium album, the “Weeding effect … Chenopodium album” value is recorded as 5 (Level 5: growth control rate is above 85%). Besides, the “Weeding effect … Descurainia sophia” value in the assay on Descurainia sophia is given as 5 (Level 5: growth control rate is above 85%).

On to `Cc1ccc(-c2nccc(C(=O)Nc3nnnn3C)c2Cl)s1` [Compound 1-187], for which the “Weeding effect … Amaranthus retroflexus L.” value in assay [1] is reported as 5 (Level 5: growth control rate is above 85%). For the same molecule, the “Weeding effect … Abutilon theophrasti” value with Abutilon theophrasti was 5 (Level 5: growth control rate is above 85%). Also, the “Weeding effect … Chenopodium album” value in the assay on Chenopodium album is 5 (Level 5: growth control rate is above 85%). Further, in the assay with Descurainia sophia, the “Weeding effect … Descurainia sophia” value is 5 (Level 5: growth control rate is above 85%).

Consider `Cc1csc(-c2nccc(C(=O)Nc3nnnn3C)c2Cl)c1` [Compound 1-188], for which the “Weeding effect … Amaranthus retroflexus L.” value in assay [1] is recorded as 5 (Level 5: growth control rate is above 85%). Also, the “Weeding effect … Abutilon theophrasti” value in the assay with Abutilon theophrasti is listed as 5 (Level 5: growth control rate is above 85%). In addition, in the assay on Chenopodium album, the “Weeding effect … Chenopodium album” value was 5 (Level 5: growth control rate is above 85%). Moreover, the “Weeding effect … Descurainia sophia” value with Descurainia sophia is listed as 5 (Level 5: growth control rate is above 85%).

Consider `Cn1nnnc1NC(=O)c1ccnc(-c2ccc(Cl)s2)c1Cl` [Compound 1-189], for which the “Weeding effect … Amaranthus retroflexus L.” value in assay [1] is 5 (Level 5: growth control rate is above 85%). The “Weeding effect … Abutilon theophrasti” value in the assay on Abutilon theophrasti was 5 (Level 5: growth control rate is above 85%). The “Weeding effect … Chenopodium album” value in the assay with Chenopodium album is listed as 5 (Level 5: growth control rate is above 85%). Further, in the assay with Descurainia sophia, the “Weeding effect … Descurainia sophia” value is 5 (Level 5: growth control rate is above 85%).
